These results are taken from US6391847B1, “Method, polypeptides, nucleotide sequence of XOR-6, a vitamin D-like receptor from xenopus” (The Salk Institute for Biological Studies, priority 1995, dated 2002).

The test system of one assay is XOR-6. Nature of the assay: cotransfection assay, activation of XOR-6 in transfected CV-1 cells. The format is cell-based, Xenopus laevis. To be noted: for activation of XOR-6 (agonist activity in the cotransfection assay): transfected CV-1 cells; for rank order potency of XOR-6 activation, ortho/meta/para amino ethyl benzoates: cotransfection assay. On the procedure: A search for the XOR-6 ligand was instituted based on the presumption that the receptor and its ligand must be co-expressed at some time during development. Accordingly, an unbiased, bioassay directed screen for XOR-6 agonists was undertaken in HPLC fractionated organic extracts derived from a mixture of developmental stages. Total lipid extracts from a mixture of embryonic stages from fertilized eggs through swimming tadpoles were prepared and tested for the ability to activate both GAL-XOR6 or full-length XOR-6 in transfected CV-1 cells.
The total extract was partitioned between iso-octane and MeOH and again tested for bioactivity.
A suitable eukaryotic expression vector for use herein was constructed from the commercially available vector pCDNAI-AMP (Invitrogen). This vector allows expression from the strong cytomegalovirus early promoter, and bacteriophage T7 and SP6 promoter-driven production of sense and antisense RNA, respectively.
The cloning strategy employed was as follows: the three endogenous NcoI sites were removed by site directed mutagenesis, the polylinker region between XhoI and XbaI was removed by double digestion, endfilling and self ligation. […] The resulting plasmid, designated pCDG1, can be linearized with NotI to produce mRNA from the bacteriophage T7 promoter. The XOR-6 protein coding region was cloned between the NcoI and BamHI sites of pCDG1 and designated pCDG-XOR6.
(§1) CV-1 cells were maintained in DMEM containing 10% resin-charcoal stripped fetal bovine serum. Liposome-mediated transient transfections were performed using DOTAP reagent (Boehringer Manheim) at a concentration of 5 μg/ml in Opti-MEM (Gibco). After 12-18 hours, the cells were washed and fresh DMEM-10% serum was added, including receptor agonists if required. After a further 48 hour incubation, the cells were lysed and luciferase reporter gene assays and β-galactosidase transfection control assays performed. Reporter gene expression is normalized to the β-galactosidase transfection control and expressed as relative light units per O.D. per minute of β-galactosidase activity.

Another assay concerns GAL-XOR-6. Nature of the assay: cotransfection assay, activation of GAL-XOR6 in CV-1 cells. Type of assay: cell-based, Xenopus laevis. To be noted: for activation of GAL-XOR-6 by agonist cocktail: cocktail: thyroid hormone 10^−7M, vitamin D3 10^−7M, all-trans RA 10^−6M, WY-14,643 5×10^−6M; for rank order potency of activation, esters differing in alkyl length (FIG. 3): 10^−6M of each compound. On the procedure: FIG. 3 illustrates the activation of XOR-6 by a variety of amino benzoate derivatives. Thus, 10^−6M of each compound was tested in the co-transfection assay for its ability to activate GAL-XOR6.
It can be concluded, therefore, that XOR-6 defines a novel RXR-dependent, ligand-mediated signalling pathway.
pCMX-GAL4-XOR6 was constructed by cloning nucleotides encoding amino acids 103 to 386 of XOR-6 into the SalI to XbaI sites of pCMX-GAL4 (see U.S. Ser. No. 08/177,740).
as §1

In the next assay the test system is XOR6:xRXRα heterodimer. Nature of the assay: co-transfection experiments, responsiveness of heterodimer to two ligands. Type of assay: cell-based, Xenopus laevis. Conditions: receptor dependent manner. On the procedure:
Receptors were transfected into cells and incubated with the indicated concentrations of agonists.
A potentially significant property of the XOR6:xRXRα heterodimer is its responsiveness to two ligands. […] This synergism occurs at several dilutions of the XOR-6 agonist and concentrations of 9-cis RA (see FIG. 4). […] Such complexes would be ideal candidates for responding to combinations of graded morphogenetic signals during development.
as §1

The next assay deals with T1, xRXRα (Xenopus laevis, UniProt P51128).
T1 construct: made in house; host or cells: coupled in vitro transcription/translation (TNT, Promega)
T1 sequence (P51128 1-488): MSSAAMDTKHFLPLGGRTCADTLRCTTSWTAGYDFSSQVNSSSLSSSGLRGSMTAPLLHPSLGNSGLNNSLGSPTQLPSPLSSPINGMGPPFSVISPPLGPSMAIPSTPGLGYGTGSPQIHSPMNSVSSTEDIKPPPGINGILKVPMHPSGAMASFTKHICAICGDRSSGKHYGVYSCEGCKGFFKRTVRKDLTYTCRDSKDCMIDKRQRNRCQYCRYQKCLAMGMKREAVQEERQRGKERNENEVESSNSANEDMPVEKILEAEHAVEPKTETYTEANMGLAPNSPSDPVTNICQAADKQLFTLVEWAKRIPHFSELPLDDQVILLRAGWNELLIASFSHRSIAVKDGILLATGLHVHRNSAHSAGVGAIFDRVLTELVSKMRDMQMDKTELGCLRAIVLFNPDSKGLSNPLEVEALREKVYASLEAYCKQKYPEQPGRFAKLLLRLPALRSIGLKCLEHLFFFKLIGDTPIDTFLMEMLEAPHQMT
Put plainly: protease protection assay (ligand binding), parallel experiment. Conditions: parallel experiment with xRXRα. The source says:
Biol. 14:287-298 (1994) was utilized.

The next assay deals with βRARE. Put plainly: interference of XOR-6 overexpression with retinoic acid signalling through βRARE in CV-1 cells. The format is cell-based. To be noted: 1 μg expression plasmid co-transfected into CV-1 cells with 5 μg tk-β REx2-luc, all-trans retinoic acid. On the procedure: 1 μg of XOR-6 expression plasmid was co-transfected into CV-1 cells with 5 μg of tk-β REx2-luc, and challenged with the indicated concentrations of all-trans retinoic acid.
Because XOR-6:RXR heterodimers bind well to a retinoic acid response element, βRARE, it was tested whether overexpression of XOR-6 could influence retinoic acid signalling through this element. […] This effect was strongest with full-length XOR-6 (24% of wild-type activity) but still detectable with GAL-XOR-6 (44% of wild-type activity).
as §1

For `Nc1cccc(C(=O)O)c1` [3-amino benzoic acid, reference compound], the “activation of XOR-6 (agonist activity in the cotransfection assay)” value in the assay on XOR-6 is listed as “not possible, however, to demonstrate XOR-6 activation”.
Consider `N[C@@H](Cc1cc(I)c(Oc2ccc(O)c(I)c2)c(I)c1)C(=O)O` [thyroid hormone, reference compound], for which, in the assay on GAL-XOR-6, the “activation of GAL-XOR-6 by agonist cocktail” value is given as “not activated”.
With `Nc1cccc(C(=O)O)c1O` [3-amino salicylic acid, reference compound], in the assay on XOR-6, the “activation of XOR-6 (agonist activity in the cotransfection assay)” value is “not possible, however, to demonstrate XOR-6 activation”.
On the same count and under the same terms, for `Nc1ccccc1C(=O)O` [2-amino benzoic acid, reference compound] the value was “not possible, however, to demonstrate XOR-6 activation”; for `Nc1ccc(C(=O)O)cc1` [4-amino benzoic acid, 4-amino-benzoic acid, reference compound], “not possible, however, to demonstrate XOR-6 activation”.
Turning to `CCOC(=O)c1ccc(N)cc1` [4-AEB, 4-amino-ethyl benzoate], in the assay with XOR-6, the “rank order potency of XOR-6 activation, ortho/meta/para amino ethyl benzoates” value is 3-AEB>4-AEB>>2-AEB and the “activation of XOR-6 (agonist activity in the cotransfection assay)” value is recorded as “activated”. The “rank order potency of activation, esters differing in alkyl length (FIG. 3)” value with GAL-XOR-6 is reported as 4-amino-butyl benzoate>3-amino-ethyl benzoate>4-amino-ethyl benzoate>>4-amino methyl benzoate.
As to `CCCCOC(=O)c1ccc(N)cc1`, the “rank order potency of activation, esters differing in alkyl length (FIG. 3)” value in the assay with GAL-XOR-6 is listed as 4-amino-butyl benzoate>3-amino-ethyl benzoate>4-amino-ethyl benzoate>>4-amino methyl benzoate.
In the case of `CC1=C(/C=C/C(C)=C/C=C/C(C)=C/C(=O)O)C(C)(C)CCC1` [all-trans RA, all-trans retinoic acid, reference compound], the “activation of GAL-XOR-6 by agonist cocktail” value with GAL-XOR-6 was “not activated”.
With `Cc1cccc(Nc2cc(Cl)nc(SCC(=O)O)n2)c1C` [WY-14,643, reference compound], in the assay on GAL-XOR-6, the “activation of GAL-XOR-6 by agonist cocktail” value is “not activated”.
Still for that read-out and setting: next, `C=C1CC[C@H](O)C/C1=C/C=C1\CCC[C@]2(C)[C@@H]([C@H](C)CCCC(C)C)CC[C@@H]12` [vitamin D3, reference compound]: “not activated”.
`CC1=C(/C=C/C(C)=C\C=C\C(C)=C\C(=O)O)C(C)(C)CCC1` [9-cis RA, 9-cis retinoic acid]: the “stimulation of reporter gene expression” value with XOR6:xRXRα heterodimer was “stimulated reporter gene expression”.
For the molecule `Nc1ccc(C(=O)O)c(O)c1` [4-amino salicylic acid, reference compound], the “activation of XOR-6 (agonist activity in the cotransfection assay)” value in the assay on XOR-6 is “not possible, however, to demonstrate XOR-6 activation”.
For `COC(=O)c1ccc(N)cc1` [4-amino methyl benzoate], the “rank order potency of activation, esters differing in alkyl length (FIG. 3)” value in the assay on GAL-XOR-6 was 4-amino-butyl benzoate>3-amino-ethyl benzoate>4-amino-ethyl benzoate>>4-amino methyl benzoate.
Turning to `CCOC(=O)c1ccccc1N` [2-AEB], in the assay on XOR-6, the “rank order potency of XOR-6 activation, ortho/meta/para amino ethyl benzoates” value is on record as 3-AEB>4-AEB>>2-AEB and the “activation of XOR-6 (agonist activity in the cotransfection assay)” value is listed as “activated”.
Regarding `CCOC(=O)c1cccc(N)c1` [3-AEB], at xRXRα, the “protection from trypsin cleavage” value was “not seen”. Besides, in the assay on XOR-6, the “specificity of activation among an extensive collection of vertebrate nuclear receptors” value is “specifically activates XOR-6 alone” and the “activation of XOR-6 (agonist activity in the cotransfection assay)” value is “potent agonist”. The “activation of XOR-6 (agonist activity in the cotransfection assay)” value in the assay with XOR-6 (listed as meta amino ethyl benzoate) is “activated”. In addition, the “rank order potency of activation, esters differing in alkyl length (FIG. 3)” value in the assay with GAL-XOR-6 is listed as 4-amino-butyl benzoate>3-amino-ethyl benzoate>4-amino-ethyl benzoate>>4-amino methyl benzoate.

B1: full-length XOR-6: Xenopus Orphan Receptor 6, about 386 amino acids (SEQ ID NO:2), overexpressed from plasmid (protein)
chain: MWKVQETLVLEEEEEEEDASNSCGTGEDEDDGDPKICRACGDRATGYHFNAMTCEGCKGFFRRAVKRNLRLSCPFQNSCVINKSNRRHCQACRLKKCLDIGMRKELIMSDAAVEQRRALIKRKHKLTKLPPTPPGASLTPEQQHFLTQLVGAHTKTFDFNFTFSKNFRPIRRSSDPTQEPQATSSEAFLMLPHISDLVTYMIKGIISFAKMLPYFKSLDIEDQIALLKGSVAEVSVIRFNTVFNSDTNTWECGPFTYDTEDMFLAGFRQLFLEPLVRIHRMMRKLNVQSEEYAMMAALSIFASYRPGVCDWEKIQKLQEHIALTLKDFIDSQRPPSPQNRLLYPKIMECLTELRTVNDIHSKQLLEIWDIQPDATPLMREVFGSPE
Turning to B1, the “retinoic acid-responsiveness of βRARE promoter on co-expression” value in the assay on βRARE is reported as 24 % of wild-type activity.

B2: GAL-XOR-6: GAL4 fusion with amino acids 103 to 386 of XOR-6 (pCMX-GAL4-XOR6) (protein)
chain: RKELIMSDAAVEQRRALIKRKHKLTKLPPTPPGASLTPEQQHFLTQLVGAHTKTFDFNFTFSKNFRPIRRSSDPTQEPQATSSEAFLMLPHISDLVTYMIKGIISFAKMLPYFKSLDIEDQIALLKGSVAEVSVIRFNTVFNSDTNTWECGPFTYDTEDMFLAGFRQLFLEPLVRIHRMMRKLNVQSEEYAMMAALSIFASYRPGVCDWEKIQKLQEHIALTLKDFIDSQRPPSPQNRLLYPKIMECLTELRTVNDIHSKQLLEIWDIQPDATPLMREVFGSPE
modifications: left off: large carriers
Regarding B2, the “retinoic acid-responsiveness of βRARE promoter on co-expression” value in the assay on βRARE is listed as 44 % of wild-type activity.
